Patent US20110028566A1, “COMPOSITIONS AND PRODUCTS CONTAINING CYCLOALIPHATIC DIOL ANTIMICROBIAL AGENTS AND METHODS OF USING THE COMPOSITIONS AND PRODUCTS” (EASTMAN CHEMICAL COMPANY, priority 2009, published 2011)

Legend:
Assay in all cases: Microbial challenge testing in BPW
Type in all cases: cell-based
Pseudomonas aeruginosa = conditions: BPW, w/v % in label, average of replicates; for Grade code, P. aeruginosa, 3 Days: 3 days incubation; for Grade code, P. aeruginosa, 13 Days: 13 days incubation; for Grade code, P. aeruginosa, 30 Days: 30 days incubation
Procedure, shortened: (§1)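 Bacteria, including ATCC and wild-type isolates from chemical products, were grown in tryptose soy broth with 1% dextrose for at least 96 hours. Inoculum was sized by plate count and turbidity (NTU) and added to test-material substrates to give 10^5 to 10^6 cfu/mL initially. Incubation ran 14 days at 35° C., then at room temperature.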

Streptococcus mutans = conditions: BPW, w/v % in label, average of replicates
Procedure, shortened: as §1

Aeromonas sp. = conditions: BPW, w/v % in label, average of replicates
Procedure, shortened: as §1

Staphylococcus aureus = conditions: BPW, w/v % in label, average of replicates; for Grade code, S. aureus, 3 Day: 3 days incubation; for Grade code, S. aureus, 14 Day: 14 days incubation; for Grade code, S. aureus, 30 Day: 30 days incubation
Procedure, shortened: as §1

Proteus vulgaris = conditions: BPW, w/v % in label, average of replicates; for Grade code, P. vulgaris, 3 Days: 3 days incubation
Procedure, shortened: as §1

Escherichia coli = conditions: BPW, w/v % in label, average of replicates; for Grade code, E. coli, 3 Day: 3 days incubation; for Grade code, E. coli, 14 Day: 14 days incubation; for Grade code, E. coli, 30 Day: 30 days incubation
Procedure, shortened: as §1

Burkholderia cepacia = conditions: BPW, w/v % in label, average of replicates; for Grade code, B. cepacia, 14 Days: 14 days incubation; for Grade code, B. cepacia, 30 Days: 30 days incubation
Procedure, shortened: as §1

[1] = tested on: Staphylococcus epidermidis; conditions: BPW, w/v % in label, average of replicates; for Grade code, S. epidermidis, 3 Days: 3 days incubation; for Grade code, S. epidermidis, 13 Days: 13 days incubation; for Grade code, S. epidermidis, 30 Days: 30 days incubation
Procedure, shortened: as §1

Bacillus subtilis = conditions: BPW, w/v % in label, average of replicates; for Grade code, B. subtilis, 3 Day: 3 days incubation; for Grade code, B. subtilis, 14 Day: 14 days incubation; for Grade code, B. subtilis, 30 Days: 30 days incubation
Procedure, shortened: as §1

## CCCCCCC(O)CO (stereo not drawn) [CG, 1,2-octanediol]
Pseudomonas aeruginosa; listed as 0.25% CG
  Grade code, P. aeruginosa, 3 Days: 2 (52 to 100 colonies counted (thus 520 to 1000 cfu/mL))
  Grade code, P. aeruginosa, 13 Days: 2 (52 to 100 colonies counted (thus 520 to 1000 cfu/mL))
  Grade code, P. aeruginosa, 30 Days: 2 (52 to 100 colonies counted (thus 520 to 1000 cfu/mL))
Pseudomonas aeruginosa; listed as 0.5% CG
  Grade code, P. aeruginosa, 3 Days: 0 (No growth detected or <1 colony (thus <10 cfu/mL))
  Grade code, P. aeruginosa, 13 Days: 0 (No growth detected or <1 colony (thus <10 cfu/mL))
  Grade code, P. aeruginosa, 30 Days: 0 (No growth detected or <1 colony (thus <10 cfu/mL))
Streptococcus mutans; 3 days incubation
  Grade code, S. mutans, 3 Day: 0 (No growth detected or <1 colony (thus <10 cfu/mL))
Streptococcus mutans; 13 days incubation
  Grade code, S. mutans, 13 Day: 0 (No growth detected or <1 colony (thus <10 cfu/mL))
Streptococcus mutans; 30 days incubation
  Grade code, S. mutans, 30 Days: 0 (No growth detected or <1 colony (thus <10 cfu/mL))
Aeromonas sp.; 3 days incubation
  Grade code, Aeromonas sp, 3 Days: 4 (1001 to 10,000 colonies (thus 10,000 cfu/mL to 100,000 cfu/mL))
Aeromonas sp.; 14 days incubation
  Grade code, Aeromonas sp, 14 Days: 4 (1001 to 10,000 colonies (thus 10,000 cfu/mL to 100,000 cfu/mL))
Aeromonas sp.; 30 days incubation
  Grade code, Aeromonas sp, 30 Days: 4 (1001 to 10,000 colonies (thus 10,000 cfu/mL to 100,000 cfu/mL))
Staphylococcus aureus; listed as 0.25% CG
  Grade code, S. aureus, 3 Day: 4 (1001 to 10,000 colonies (thus 10,000 cfu/mL to 100,000 cfu/mL))
  Grade code, S. aureus, 14 Day: 2 (52 to 100 colonies counted (thus 520 to 1000 cfu/mL))
  Grade code, S. aureus, 30 Day: 2 (52 to 100 colonies counted (thus 520 to 1000 cfu/mL))
Staphylococcus aureus; listed as 0.5% CG
  Grade code, S. aureus, 3 Day: 3 (101 to 1000 colonies (thus 1000 to 10,000 cfu/mL))
  Grade code, S. aureus, 14 Day: 0 (No growth detected or <1 colony (thus <10 cfu/mL))
  Grade code, S. aureus, 30 Day: 0 (No growth detected or <1 colony (thus <10 cfu/mL))
Proteus vulgaris; listed as 0.25% CG
  Grade code, P. vulgaris, 3 Days: 4 (1001 to 10,000 colonies (thus 10,000 cfu/mL to 100,000 cfu/mL))
Proteus vulgaris; listed as 0.5% CG
  Grade code, P. vulgaris, 3 Days: 3 (101 to 1000 colonies (thus 1000 to 10,000 cfu/mL))
Proteus vulgaris; 13 days incubation
  Grade code, P. vulgaris, 13 Days: 2 (52 to 100 colonies counted (thus 520 to 1000 cfu/mL))
Proteus vulgaris; 30 days incubation
  Grade code, P. vulgaris, 30 Day: 2 (52 to 100 colonies counted (thus 520 to 1000 cfu/mL))
Escherichia coli; listed as 0.25% CG
  Grade code, E. coli, 3 Day: 3 (101 to 1000 colonies (thus 1000 to 10,000 cfu/mL))
  Grade code, E. coli, 14 Day: 2 (52 to 100 colonies counted (thus 520 to 1000 cfu/mL))
  Grade code, E. coli, 30 Day: 2 (52 to 100 colonies counted (thus 520 to 1000 cfu/mL))
Escherichia coli; listed as 0.5% CG
  Grade code, E. coli, 3 Day: 1 (1 to 51 colonies counted (thus 10 to 510 cfu/mL))
  Grade code, E. coli, 14 Day: 0 (No growth detected or <1 colony (thus <10 cfu/mL))
  Grade code, E. coli, 30 Day: 0 (No growth detected or <1 colony (thus <10 cfu/mL))
Burkholderia cepacia; 3 days incubation
  Grade code, B. cepacia, 3 Days: 2 (52 to 100 colonies counted (thus 520 to 1000 cfu/mL))
Burkholderia cepacia; listed as 0.25% CG
  Grade code, B. cepacia, 14 Days: 0.5
  Grade code, B. cepacia, 30 Days: 0.5
Burkholderia cepacia; listed as 0.5% CG
  Grade code, B. cepacia, 14 Days: 0 (No growth detected or <1 colony (thus <10 cfu/mL))
  Grade code, B. cepacia, 30 Days: 0 (No growth detected or <1 colony (thus <10 cfu/mL))
[1]; listed as 0.25% CG
  Grade code, S. epidermidis, 3 Days: 4 (1001 to 10,000 colonies (thus 10,000 cfu/mL to 100,000 cfu/mL))
  Grade code, S. epidermidis, 13 Days: 1 (1 to 51 colonies counted (thus 10 to 510 cfu/mL))
  Grade code, S. epidermidis, 30 Days: 1 (1 to 51 colonies counted (thus 10 to 510 cfu/mL))
[1]; listed as 0.5% CG
  Grade code, S. epidermidis, 3 Days: 2 (52 to 100 colonies counted (thus 520 to 1000 cfu/mL))
  Grade code, S. epidermidis, 13 Days: 0 (No growth detected or <1 colony (thus <10 cfu/mL))
  Grade code, S. epidermidis, 30 Days: 0 (No growth detected or <1 colony (thus <10 cfu/mL))
Bacillus subtilis; listed as 0.25% CG
  Grade code, B. subtilis, 3 Day: 4 (1001 to 10,000 colonies (thus 10,000 cfu/mL to 100,000 cfu/mL))
  Grade code, B. subtilis, 14 Day: 4 (1001 to 10,000 colonies (thus 10,000 cfu/mL to 100,000 cfu/mL))
  Grade code, B. subtilis, 30 Days: 4 (1001 to 10,000 colonies (thus 10,000 cfu/mL to 100,000 cfu/mL))
Bacillus subtilis; listed as 0.5% CG
  Grade code, B. subtilis, 3 Day: 3 (101 to 1000 colonies (thus 1000 to 10,000 cfu/mL))
  Grade code, B. subtilis, 14 Day: 1 (1 to 51 colonies counted (thus 10 to 510 cfu/mL))
  Grade code, B. subtilis, 30 Days: 1 (1 to 51 colonies counted (thus 10 to 510 cfu/mL))
